Results reported in a melting point compilation (Tetko et al.; mined from patent text by program, amines drawn as free bases though some values may be those of a salt).

Row | melting point | SMILES
1 | 154 to 159 °C | CCOC(=O)c1c(C)nc(N2CCNCC2)nc1N1CCS(=O)(=O)CC1
2 | 126 to 129 °C | CC1=C(c2ccc(O)cc2)C(=O)c2c(O)cc(O)cc21
3 | 51 to 52 °C | CCC(=O)C(=Cc1cccc(C#N)c1)C(=O)CC
4 | 209 to 210 °C | C=CCC1(Cc2nc[nH]c2C)CCc2c(C)c3ccccc3n2C1=O (stereo not given)
5 | 172 to 174 °C | CNC(=O)Nc1cc(CC(C)C)ccc1-c1ccccc1S(=O)(=O)Nc1onc(C)c1C
6 | 100 to 101 °C | COc1c(C)ccc(C(C)C)c1CO
7 | 218 to 220 °C | CCOC(=O)c1[nH]c2ccccc2c1-c1ccc([N+](=O)[O-])cc1
8 | 58 °C | Cc1cnc2c(c1)CCCC2O (stereo not given)
9 | 150 to 152 °C | Cn1cc(CC2CCN(CCN3c4cccc5cccc(c45)S3(=O)=O)CC2)c2cc(F)ccc21
10 | 228 to 230 °C | COC(=O)c1ccc2c(c1)c(Cc1ccc(C(=O)O)cc1OC)cn2C
11 | 208 to 209 °C | Cc1cc(C)cc(S(=O)(=O)c2cccc(N)c2C#N)c1
12 | 143 to 144 °C | COc1cc(OC)cc(N2CCN(C(=O)Nc3cc4c(nc3OC)CCC4)CC2)c1
13 | 97 to 98.5 °C | CCCOc1ccccc1-c1nc(O)cc(CC)n1
14 | 208 to 212 °C | O=C(O)Cc1c(C(=O)c2cccc(Cl)c2)[nH]c2ccc(F)cc12
15 | 181 to 185 °C | O=C1OCc2ccccc2C1=NO
16 | 115 to 116 °C | CN(C)c1ccc2c(c1)C(=O)N(c1ccc(CCCC(=O)OC(C)(C)C)cc1)C2
17 | 165 to 166 °C | Clc1ccccc1C=Nc1c2c(nc3ccccc13)CCCC2
18 | 234 to 238 °C | CC1(C)CC(NC(=O)NC23CC4CC(CC(C4)C2)C3)CC(C)(C)C1=O
19 | 233 to 234 °C | C[C@H](CN1CC[C@@H](F)C1)NC(=O)c1c[nH]c2ncc(-c3nn(C)c4cc(Cl)ccc34)nc12
20 | 132 to 133 °C | Cc1ccccc1Cc1cccc(-c2ncc3c(n2)CCOC3)n1
21 | 197 to 199 °C | CCOCc1nc2c(N)nc3cc(-c4cccnc4)ccc3c2n1CC(C)(C)O
22 | 115 °C | COc1cccc2c1CC(N(CCCc1c[nH]c3ccc(F)cc13)CC1CCC1)CO2 (stereo not given)
23 | 152 °C | COc1ccccc1Oc1c(Cl)ncnc1NS(=O)(=O)c1ccc(C(C)(C)C)cc1
24 | 202 to 203 °C | OP(O)C(C=Cc1ccccc1)NC(c1ccccc1)c1ccccc1 (stereo not given)

Row | melting point | SMILES
25 | 101 to 107 °C | CCOC(C)OC1CCC2(C)C3=C(CCC2C1(C)C)C1=CCC(C(C)CSc2ccccc2)C1(C)CC3 (stereo not given)
26 | 106 to 107 °C | CCOC(=O)C=C(C)C=CC=C(C)C=Cc1c(C)cc(OC)c(C)c1Cl
27 | 54.5 to 56 °C | C=C(C)C(C(=O)OC(C)(C)C)C1(CC(C)C)CCN(CCc2ccccc2)C1=O (stereo not given)
28 | 85 to 86 °C | COC(=O)c1ncn(CCCc2ccc(OCc3coc(/C=C/c4ccccc4)n3)cc2)c1C(=O)OC
29 | 149 to 150 °C | CC(CO)(CCCCN1C(=O)c2ccccc2C1=O)c1ccccc1 (stereo not given)
30 | 154 to 156 °C | Cc1ccc(-c2cccc(/C=C/C(=O)Nc3ccc(CN4CCCCC4)cc3)c2)cc1
31 | 134 to 136 °C | CCCCC[C@@H](CC(=O)NO)C(=O)N[C@H](CC(C)C)C(=O)N[C@@H](C)C(N)=O
32 | 231 °C | CC(C)(C)CNS(=O)(=O)c1cccc(NC(=O)c2cnn3c(C(F)(F)F)cc(-c4ccc(C(F)(F)F)cc4)nc23)c1
33 | > 250 °C | CNCC1Cc2cccc(-c3c(C)cccc3C)c2O1 (stereo not given)
34 | 77 to 80 °C | CCOC(=O)C1(C(=O)Nc2ccc(Cl)cc2CC)CC1
35 | 232 °C | COc1ccc(N2CCN(c3ccc(-n4cnnc4S)cc3)CC2)cc1
36 | 200 to 202 °C | CC(C)N(Cc1ccccc1)c1ncnc2nc[nH]c12
37 | 235 °C | COc1cccc(OC)c1-c1ccc(C[C@H](NC(=O)c2c(Cl)ccc(Br)c2Cl)C(=O)O)cc1
38 | 53 to 54 °C | COC(=O)CC1(O)C=CC(=O)C=C1
39 | 36 to 40 °C | CC(=O)OCCSCCCC(=O)NC/C=C\COc1cc(CN2CCCCC2)ccn1
40 | 135 to 137 °C | COc1cc(C2=NCCO2)cc(OC)c1C(C)=O
41 | 117 °C | CCCCCCCCCCOc1ccc(NC(=O)c2ccc(OC(C)=O)cc2)cc1OCCCCCCCCCC
42 | 111 to 114 °C | Cc1cc(C(F)(F)F)ccc1NC(=O)C(C)(C)C
43 | 154 to 155 °C | COC(=O)c1ccc2oc(-c3ccccc3OC(C)C)cc(=O)c2c1
44 | 177 to 178 °C | COC(=O)c1ccc2cc(OCc3cccc(COc4ccc5cc(C(=O)OC)ccc5c4)c3)ccc2c1
45 | 231 °C | CC1(C)CCC(C)(C)c2cc(-c3cc(-c4ccc(C(N)=O)cc4-c4ccc(O)cc4)ccc3-c3ccccc3)ccc21
46 | 142 to 147 °C | CN(C)c1ccc(NC(=O)N(C[C@H]2CCC[C@H](CN(C(=O)Nc3ccc(N(C)C)cc3)C3CCCC3)C2)C2CCCC2)cc1 (relative stereo)
47 | 100 to 102 °C | CC1(C(=O)C2(C)COCOC2)COCOC1
48 | 93 to 95 °C | CC#CCCn1ncc2c(OCC)c(C(=O)OCC)cnc21

Row | melting point | SMILES
49 | 151 to 153 °C | CC(C)(C)c1cc(SCN2C(=O)c3ccccc3C2=O)cc(C(C)(C)C)c1O
50 | 200 to 205 °C | CN1CCCC1=Nc1ncnc2c1ncn2C1=CC(=O)CC1
51 | 207 to 209 °C | Nc1cccc2nc3c(nc12)N1CCCCC1CO3 (stereo not given)
52 | 215 to 217 °C | CS(=O)c1nnc2c3ccccc3c(-c3ccccc3)nn12 (stereo not given)
53 | 116 to 118 °C | O=C(Nc1cccc(C(F)(F)F)c1)NC1CCN(S(=O)(=O)c2ccc(Cl)cc2)CC1
54 | 199 °C | FC(F)(F)c1ccc(-c2cc(C(F)(F)F)n3ncc(-c4nc(-c5cccnc5)no4)c3n2)cc1
55 | 126 to 128 °C | CCCc1nccn1-c1nc(Cl)nc2c1ncn2C1OC(COC(C)=O)C(OC(C)=O)C1OC(C)=O (stereo not given)
56 | 132 to 135 °C | Cc1cc(Oc2c(F)cc(C(F)(F)F)cc2Cl)nn1C(N)=O
57 | 178 to 179 °C | Cc1nc2c3c(c(C(=O)N(C)C)cc2n1C)CCC1(Cc2ccccc2C1)N3
58 | 101 to 102 °C | Cc1c(C)n(CC2CC2C)c2c(OCc3ccc(F)cc3F)nncc12 (stereo not given)
59 | 147 to 148 °C | O=C(O)c1cccc(-c2ccccc2F)c1
60 | 168 to 170 °C | Cc1cc2c(c(C)c1S(=O)(=O)C[N+](=O)[O-])CCCS2(=O)=O
61 | 106 to 108 °C | Cc1ccc(C)c(NC(=O)CN2CCN(c3ncccc3C#N)CC2)c1
62 | 262 to 264 °C | CN(C)c1ccc(-c2nc(S)nnc2-c2ccc(F)cc2)cc1
63 | 153 °C | CC(COc1ccc2ccc(Oc3c(F)cc(C(F)(F)F)cc3Cl)cc2c1)=NO
64 | 152 to 154 °C | CCCN1C(=O)N2C(=NCC2c2ccccc2)c2c1ncn2C (stereo not given)
65 | 102 to 103 °C | CC(C)CCCC(C)C1CCC2C3CC=C4CCCC(O)C4(C)C3CCC12C (stereo not given)
66 | 86 to 87 °C | CCC(CC)c1nn(-c2ccc(C(F)(F)F)nn2)cc1CCCO
67 | 202 to 204 °C | NC(=O)NN=Cc1ccc(Oc2ccc3c(c2)CCCC3)cc1
68 | 209 to 210 °C | COc1ccc2c(c1)nc(COc1ccc(CC3SC(=O)NC3=O)cc1)n2C (stereo not given)
69 | 135 to 136 °C | CC1(C2CCCC2)Cc2cc(NCCO)c(Cl)c(Cl)c2C1=O (stereo not given)
70 | 140 to 142 °C | COc1nc2ccccc2cc1NC(=S)N1CCN(c2cc(F)cc(F)c2)CC1
71 | 225 to 226 °C | CC(C)c1cc2c(=O)n3cc(C#N)ccc3nc2s1
72 | 138 to 141 °C | COc1cc(N)c(Cl)cc1C(=O)NCC1CCN(CCCCCC(=O)c2ccccc2)CC1

Row | melting point | SMILES
73 | 130 to 140 °C | Cc1[nH]c(C)c2c1C(C)(C)CC2(C)C#N (stereo not given)
74 | 20 to 22 °C | CCCCCCCC=CCCCCCCCCC(=O)OCC(O)COC(=O)CCCCCCCC=CCCCCCCCC (stereo not given)
75 | 184 to 186 °C | CC(=O)NC(=O)C(SCc1ccccc1)C(c1ccccc1)(c1ccccc1)c1ccccc1 (stereo not given)
76 | 190 to 191 °C | COc1ccc2c(c1)c(SC(C)(C)C)c(CC(C)(C)C(=O)O)n2Cc1ccc(Cl)cc1
77 | 62 to 64 °C | COc1ccc(/C=C/c2cc(Cl)cc(Cl)c2)cc1
78 | 102 to 103 °C | CC(C)(C)OC(=O)N1CCC(Oc2ccccc2C(C)(C)C)CC1
79 | 140 to 141 °C | COP(=O)(CC(=C(c1ccc(F)cc1)c1ccc(F)cc1)c1nnnn1C)OC
80 | 80 to 82 °C | O=C(CC(Cc1cccc2ccccc12)C(=O)N1C(=O)OCC1Cc1ccccc1)N1CCOCC1 (stereo not given)
81 | 99 to 100 °C | Nc1nc(-c2ccc(CCCCCl)s2)cs1
82 | 92 to 95 °C | O=c1[nH]c2ccccc2n1OCc1ccccc1
83 | 157 to 159 °C | C=CC[C@@H]1C[C@@H](COc2ccc(-c3ccc(C#N)cc3)cc2)N(CCCC2CCCCC2)C1=O
84 | 164 to 165 °C | CN(C)c1cccc2c(S(=O)(=O)Nc3ccc(Br)nc3)cccc12
85 | 157 to 160 °C | CCOc1cc2c(cc1OCC)C(C(S)(C#N)c1ccc(Cl)cc1)=NCC2 (stereo not given)
86 | 112 to 114 °C | CCc1c2ccccc2nc2c1c(C)nn2-c1ccccn1
87 | 108 to 110 °C | CC1(C)OC(c2ccc(-c3ccc(Cl)cc3)cc2)OC1=O (stereo not given)
88 | 70 to 73 °C | O=C1CC(c2ccc(F)cc2)c2ccc(F)cc21 (stereo not given)
89 | 203 to 205 °C | Cc1cc(-c2nc(C)c(C)o2)cc(C)c1O
90 | 256 to 257 °C | O=C(O)c1ccc2c(c1)CCc1ccc(O)cc1C2=O
91 | 234 to 236 °C | COc1cc2c(cc1Cl)CC(=O)NN=C2c1ccc(N)cc1
92 | 231 to 233 °C | Cc1cc2c(cc1S(N)(=O)=O)S(=O)(=O)NC(C1CCCCC1)N2 (stereo not given)
93 | 93 to 94 °C | CC1(C)C2CCC(C2)C1(C)F (stereo not given)
94 | 127 to 129 °C | CCCC1CCc2cc(OC)c(Cl)c(Cl)c2C1=O (stereo not given)
95 | 149 to 151 °C | COc1ccc(Cl)n2nc(S(=O)(=O)Cl)nc12

Row | SMILES | melting point
96 | Oc1ccc(-c2ccc(C#CC3(O)CN4CCC3CC4)cc2)cc1 (stereo not given) | 230 to 233 °C
97 | CSc1c(C#N)nn(-c2c(Cl)cc(C(F)(F)F)cc2Cl)c1N | 147 to 148 °C
98 | c1ccc2cc(NC3=NCC4(CN5CCC4CC5)O3)ncc2c1 (stereo not given) | 196 to 200 °C
99 | CCOC(=O)Nc1nc(C)c(-c2nc3ccccc3c(=O)n2-c2ccccc2)s1 | 248 to 251 °C
100 | CN1c2ccccc2C(c2ccccc2F)=NCC1CNC(=O)C(Cc1c[nH]c2ccccc12)NC(=O)OC(C)(C)C (stereo not given) | 124 °C
